# Biological target: B. fragilis CfiA metallo-β-lactamase (Bacteroides fragilis, UniProt P25910)
# Assay: I50 screen, nitrocefin reporter substrate
# Assay type: biochemical
# Conditions: 25 mM PIPES pH 7, 37° C., nitrocefin 91 μM, 5 minute preincubation, Zn2+ 100 μM; read-out: I50 against B. fragilis CfiA metallo-β-lactamase
# Protocol: The inhibitory activity of the compounds of the invention was measured in 25 mM PIPES pH 7 buffer at 10 concentrations (1000, 333, 111, 37, 12.3, 4.1, 1.4, 0.46, 0.15 and 0.05 μM) at 37° C. using nitrocefin (91 μM final concentration) as the reporter substrate. The assays were performed with a 5 minute preincubation of enzyme and inhibitor and were conducted in the presence of added zinc sulphate (Zn^2+ 100 μM, final concentration). the methodology is described in detail in the following references: Payne et al (1991), J. Antimicrob. Chemother., 28:255; Payne et al (1994), Antimicrob. Agents and Chemother., 38:767.
# B. fragilis CfiA metallo-β-lactamase, sequence (P25910 19-249): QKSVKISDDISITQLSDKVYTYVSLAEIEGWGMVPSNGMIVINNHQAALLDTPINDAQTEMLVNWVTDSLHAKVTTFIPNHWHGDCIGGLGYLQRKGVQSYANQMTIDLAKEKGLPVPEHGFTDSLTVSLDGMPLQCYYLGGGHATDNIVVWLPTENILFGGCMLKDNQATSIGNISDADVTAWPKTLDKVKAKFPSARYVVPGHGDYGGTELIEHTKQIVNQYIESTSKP
row,SMILES,IC50 [µM]
1,"O=C(N[C@@H](C(=O)O)c1ccc(OCc2ccc([N+](=O)[O-])cc2)cc1)C(CS)CCc1ccccc1 (single isomer, unassigned) [Example 53, N-(2'-mercaptomethyl-4'-phenylbutanoyl)-p-(p-nitro)-benzyloxy-D-phenylglycine]",< 1
2,"CN(C)c1ccc(CCOc2ccc([C@@H](NC(=O)C(CS)CCc3ccccc3)C(=O)O)cc2)cc1 (single isomer, unassigned) [Example 66, N-(2'-mercaptomethyl-4'-phenylbutanoyl)-p-(p-dimethylamino)-phenethyloxy-D-phenylglycine]",< 1
3,"O=C(N[C@@H](C(=O)O)c1ccc(OCc2ccccc2)cc1)C(CS)CCc1ccccc1 (single isomer, unassigned) [Example 19, N-(2'-mercaptomethyl-4'-phenylbutanoyl)-p-benzyloxy-D-phenylglycine]",< 1
4,"CN(C)c1ccc(COc2ccc([C@@H](NC(=O)C(CS)CCc3ccccc3)C(=O)O)cc2)cc1 (single isomer, unassigned) [Example 48, N-(2'-mercaptomethyl-4'-phenylbutanoyl)-p-(p-dimethylamino)-benzyloxy-D-phenylglycine]",< 1
5,"O=C(N[C@@H](C(=O)O)c1ccc(OCc2ccccn2)cc1)C(CS)CCc1ccccc1 (stereo partly drawn) [Example 56, N-(2'-RS-mercaptomethyl-4'-phenylbutanoyl)-p-(2-pyridylmethoxy)-D-phenylglycine]",< 1
6,"O=C(NC(C(=O)O)c1cccc(Oc2ccccc2)c1)C(CS)CCc1ccccc1 (single isomer, unassigned) [Example 3, N-(2'-mercaptomethyl-4'-phenylbutanoyl)-m-phenoxy-phenylglycine]",< 1
7,"O=C(N[C@@H](C(=O)O)c1ccc(OCc2cccs2)cc1)C(CS)CCc1ccccc1 (single isomer, unassigned) [Example 21, N-(2'-mercaptomethyl-4'-phenylbutanoyl)-p-(2""-thienylmethoxy)-D-phenylglycine]",< 1
8,"O=C(N[C@@H](C(=O)O)c1ccc(OCc2ccncc2)cc1)C(CS)CCc1ccccc1 (stereo partly drawn) [Example 55, N-(2'-RS-mercaptomethyl-4'-phenylbutanoyl)-p-(4-pyridylmethoxy)-D-phenylglycine]",< 1
9,"O=C(NC(C(=O)O)c1ccc(Cc2ccccc2)s1)C(CS)CCc1ccccc1 (racemic) [34 (more polar isomer), 2-[(5-Benzyl)thien-2-yl]-N-[2-(mercaptomethyl)-4-phenylbutyryl]glycine]",< 1
10,"O=C(NC(C(=O)O)c1cccc(Oc2ccccc2)c1)C(CS)CCc1ccccc1 (single isomer, unassigned) [Example 4, N-(2'-mercaptomethyl-4'-phenylbutanoyl)-m-phenoxy-phenylglycine]",< 1
11,"O=C(N[C@@H](C(=O)O)c1ccc(OCc2ccc(OCc3ccccc3)cc2)cc1)C(CS)CCc1ccccc1 (single isomer, unassigned) [Example 69, N-(2'-mercaptomethyl-4'-phenylbutanoyl)-p-(p-benzyloxy)-benzyloxy-D-phenylglycine]",< 1
12,"O=C(O)c1cccc(COc2ccc([C@@H](NC(=O)C(CS)CCc3ccccc3)C(=O)O)cc2)c1 (single isomer, unassigned) [Example 50, N-(2'-mercaptomethyl-4'-phenylbutanoyl)-p-(m-carboxy)-benzyloxy-D-phenylglycine]",< 1
13,"C[n+]1cccc(COc2ccc([C@@H](NC(=O)C(CS)CCc3ccccc3)C(=O)[O-])cc2)c1 (stereo partly drawn) [Example 67, N-(2'-RS-mercaptomethyl-4'-phenylbutanoyl)-p-(N-methyl-3-pyridiniummethoxy)-D-phenylglycine]",< 1

# System: Bacteroides fragillis 262 strain, which produces CfiA metallo-β-lactamase
# Assay: Antibacterial activity (MIC) in combination with meropenem
# Assay type: cell-based
# Conditions: read-out: MIC of compound alone
# From the text: Antibacterial activity of compounds of the invention in combination with the carbapenem antibiotic, meropenem, against the Bacteroides fragillis 262 strain, which produces CfiA metallo-β-lactamase:
# [MIC=minimum inhibitory concentration (μg/ml)]
row,SMILES,MIC [µg/mL]
1,"O=C(NC(C(=O)O)c1ccc(Cc2ccccc2)s1)C(CS)CCc1ccccc1 (centres unmarked) [Example 24, 2-[(5-Benzyl)thien-2-yl]-N-[2-(mercaptomethyl)-4-phenylbutyryl]glycine]",> 256
2,"O=C(NC(C(=O)O)c1cccc(Oc2ccccc2)c1)C(CS)CCc1ccccc1 (single isomer, unassigned) [Example 4, N-(2'-mercaptomethyl-4'-phenylbutanoyl)-m-phenoxy-phenylglycine]",> 256
3,"O=C(NC(C(=O)O)c1ccc(CC2CCOC2)s1)C(CS)CCc1ccccc1 (centres unmarked) [Example 26, 2-[5-(Tetrahydrofuran-3-ylmethyl)thien-2-yl]-N-[2-(mercaptomethyl)-4-phenylbutyryl]glycine]",> 256

# Same assay, conditions: read-out: MIC of meropenem alone
row,SMILES,MIC [µg/mL]
1,"C[C@@H](O)[C@H]1C(=O)N2C(C(=O)O)=C(S[C@@H]3CN[C@H](C(=O)N(C)C)C3)[C@H](C)[C@H]12 [meropenem, reference compound]",> 128

# Reference: patent US6156774A, “Beta-thiopropionyl-amino acid derivatives and their use as beta-lactamase inhibitors” (SmithKline Beecham P.L.C., priority 1996, dated 2000)
